Source: patent US6462047B1, “Carboline derivatives as cGMP phosphodiesterase inhibitors” (ICOS Corporation, priority 2001, dated 2002)

Experiments:
[1] = system: conscious spontaneously hypertensive rats (SHRs); assay: Hypotensive effects in conscious spontaneously hypertensive rats; assay type: in vivo, rat; conditions: orally 5 mg/kg in 5% DMF and 95% olive oil; AUC from 0 to 5 hours of the fall in blood pressure
Procedure: The hypotensive effects of compounds according to the invention as identified in Table 2 were studied in conscious spontaneously hypertensive rats (SHRs). The compounds were administered orally at a dose of 5 mg/kg in a mixture of 5% DMF and 95% olive oil. Blood pressure was measured from a catheter inserted in the carotid artery and recorded for five hours after administration. The results are expressed as Area Under the Curve (AUC) from 0 to 5 hours, mm Hg.hours of the fall in blood pressure over time.

[2] = system: Rat aortic smooth muscle cells (RSMC); assay: cGMP level measurements in ANF-stimulated rat aortic smooth muscle cells; assay type: cell-based; conditions: 30 minutes at 37° C. with compound, then ANF (100 nM) for 10 minutes, dose giving half of the stimulation at saturating concentrations
Procedure: Rat aortic smooth muscle cells (RSMC), prepared according to Chamley et al., Cell Tissue Res., 177, 503-522 (1977), were used between the 10th and 25th passage at confluence in 24-well culture dishes. Culture media was aspirated and replaced with PBS (0.5 ml) containing the compound tested at the appropriate concentration. After 30 minutes at 37° C., particulates guanylate cyclase was stimulated by addition of ANF (100 nM) for 10 minutes. At the end of incubation, the medium was withdrawn, and two extractions were performed by addition of 65% ethanol (0.25 ml). The two ethanolic extracts were pooled and evaporated until dryness, using a Speed-vac system. cGMP was measured after acetylation by scintillation proximity immunoassay (AMERSHAM). The EC50 values are expressed as the dose-giving half of the stimulation at saturating concentrations.

human recombinant PDE5 = human recombinant PDE5 (Homo sapiens, UniProt O76074); assay: Inhibitory effect on cGMP-PDE (one-step assay adapted from Wells et al.); assay type: biochemical; conditions: human recombinant PDE5, 0.15 μM 8-[H3]-cGMP, 30 minutes incubation, 2% DMSO
Procedure: cGMP-PDE activity of compounds of the present invention was measured using a one-step assay adapted from Wells et al., Biochim. Biophys. Acta, 384, 430 (1975). The reaction medium contained 50 mM Tris-HCl, pH 7.5, 5 mM magnesium acetate, 250 μg/ml 5′-Nucleotidase, 1 mM EGTA, and 0.15 μM 8-[H^3]-cGMP. The enzyme used was a human recombinant PDE5 (ICOS Corp., Bothell, Wash.).
Compounds of the invention were dissolved in DMSO finally present at 2% in the assay.

Row | SMILES | SHR AUC PO [1] [mm Hg.h] | melting point [°C] | EC50 [2] [µM] | IC50 (human recombinant PDE5) [µM]
1 | O=C(/C=C/c1cccnc1)N1CCc2c([nH]c3ccccc23)C1c1ccc2c(c1)OCO2 (stereo not drawn) [Example 1, (E)-1-[1-(3,4-Methylenedioxyphenyl)-2,3,4,9-tetrahydro-β-carbolin-2-yl]-3-(pyridin-3-yl)-propene-1-one] | 61 | 240 | 0.5 | 0.058
2 | O=C(/C=C/c1ccccn1)N1CCc2c([nH]c3ccccc23)C1c1ccc2c(c1)OCO2 (stereo not drawn) [Example 2, (E)-1-[1-(3,4-Methylenedioxyphenyl)-2,3,4,9-tetrahydro-β-carbolin-2-yl]-3-(pyridin-2-yl)-propene-1-one] | – | 135 to 141 | – | 0.076
3 | O=C(/C=C/c1ccccn1)N1CCc2c([nH]c3ccccc23)C1c1ccccc1 (stereo not drawn) [Example 3, (E)-1-[1-phenyl-2,3,4,9-tetrahydro-β-carbolin-2-yl]-3-(pyridin-2-yl)-propene-1-one] | – | 130 to 135 | – | 0.74
4 | O=C(/C=C/c1ccncc1)N1CCc2c([nH]c3ccccc23)C1c1ccc2c(c1)OCO2 (centres unmarked) [Example 4] | – | 224 to 225 | 0.5 | 0.046
5 | O=C(/C=C/c1cccnc1)N1CCc2c([nH]c3ccccc23)C1c1ccc2c(c1)CCO2 (stereo not drawn) [Example 5, (E)-1-[1-(2,3-Dihydrobenzofuran-5-yl)-2,3,4,9-tetrahydro-β-carbolin-2-yl]-3-(pyridin-3-yl)-propene-1-one] | 12 | 221 to 222 | < 1 | 0.014
6 | CN(C)CCOc1ccc(/C=C/C(=O)N2CCc3c([nH]c4ccccc34)[C@H]2c2ccc3c(c2)CCO3)cn1 [Example 6, (E)-1R-1-[1-(2,3-Dihydrobenzofuran-5-yl)-2,3,4,9-tetrahydro-β-carbolin-2-yl]-3-[6-(2-dimethylaminoethoxy)-pyridin-3-yl]-propene-1-one] | 95 | 155 | < 1 | 0.01
7 | CN(C)c1ccc(/C=C/C(=O)N2CCc3c([nH]c4ccccc34)[C@H]2c2ccc3c(c2)CCO3)cn1 [Example 7, (E)-(R)-1-[1-(2,3-Dihydrobenzofuran-5-yl)-2,3,4,9-tetrahydro-β-carbolin-2-yl]-3-(6-dimethylamino-pyridin-3-yl)-propene-1-one] | 156 | 171 | < 1 | 0.006
8 | CNc1ccc(/C=C/C(=O)N2CCc3c([nH]c4ccccc34)[C@H]2c2ccc3c(c2)CCO3)cn1 [Example 8, (E)-(R)-1-[1-(2,3-Dihydrobenzofuran-5-yl)-2,3,4,9-tetrahydro-β-carbolin-2-yl]-3-(6-methylaminopyridin-3-yl)-propene-1-one] | 50 | 171 | < 1 | 0.007
9 | CN1CCN(c2ccc(/C=C/C(=O)N3CCc4c([nH]c5ccccc45)[C@H]3c3ccc4c(c3)CCO4)cn2)CC1 [Example 9, (E)-(R)-1-[1-(2,3-Dihydrobenzofuran-5-yl)-2,3,4,9-tetrahydro-β-carbolin-2-yl]-3-[6-(4-methylpiperazin-1-yl)-pyridin-3-yl]-propene-1-one] | 63 | > 260 | 1 | 0.025
10 | O=C(/C=C/c1ccc(N2CCCC2)nc1)N1CCc2c([nH]c3ccccc23)[C@H]1c1ccc2c(c1)CCO2 [Example 10, (E)-(R)-1-[1-(2,3-Dihydrobenzofuran-5-yl)-2,3,4,9-tetrahydro-β-carbolin-2-yl]-3-(6-pyrrolidin-1-yl-pyridin-3-yl)-propene-1-one] | – | 201 | < 1 | 0.009
11 | COC(=O)c1ccc(/C=C/C(=O)N2CCc3c([nH]c4ccccc34)[C@H]2c2ccc3c(c2)CCO3)nc1 [Example 11, (E)-(R)-6-{3-[1-(2,3-Dihydrobenzofuran-5-yl)-2,3,4,9-tetrahydro-β-carbolin-2-yl]-3-oxo-propenyl}-nicotinic acid methyl ester] | – | > 260 | < 1 | 0.027
12 | O=C(O)c1ccc(/C=C/C(=O)N2CCc3c([nH]c4ccccc34)[C@H]2c2ccc3c(c2)CCO3)nc1 [Example 12, (E)-(R)-6-{3-[1-(2,3-Dihydrobenzofuran-5-yl)-2,3,4,9-tetrahydro-β-carbolin-2-yl]-3-oxo-propenyl}-nicotinic acid] | – | 183 | 5 | 0.003
13 | CN(C)Cc1ccc(/C=C/C(=O)N2CCc3c([nH]c4ccccc34)[C@H]2c2ccc3c(c2)CCO3)cn1 [Example 13, (E)-(R)-1-[1-(2,3-Dihydrobenzofuran-5-yl)-2,3,4,9-tetrahydro-β-carbolin-2-yl]-3-(6-dimethylaminomethyl-pyridin-3-yl)-propene-1-one] | 57 | 163 | < 1 | 0.03
14 | CN(C)Cc1ccc(/C=C/C(=O)N2CCc3c([nH]c4ccccc34)[C@H]2c2ccc3c(c2)CCO3)s1 [Example 14, (E)-1R-1-[1-(2,3-Dihydrobenzofuran-5-yl)-2,3,4,9-tetrahydro-β-carboline-2-yl]-3-(5-dimethylaminomethyl-thiophen-2-yl)-propene-1-one] | 107 | – | 1.5 | 0.005
15 | O=C(/C=C/c1ccc(CN2CCCC2)s1)N1CCc2c([nH]c3ccccc23)[C@H]1c1ccc2c(c1)CCO2 [Example 15, (E)-1R-1-[1-(2,3-Dihydrobenzofuran-5-yl)-2,3,4,9-tetrahydro-β-carboline-2-yl]-3-(5-pyrrolidin-1-ylmethyl-thiophen-2-yl)-propene-1-one] | 96 | – | 1.5 | 0.04
16 | CN1CCN(Cc2ccc(/C=C/C(=O)N3CCc4c([nH]c5ccccc45)[C@H]3c3ccc4c(c3)CCO4)s2)CC1 [Example 16, (E)-1R-1-[1-(2,3-Dihydrobenzofuran-5-yl)-2,3,4,9-tetrahydro-β-carboline-2-yl]-3-(4-methyl-piperazin-1-ylmethyl-thiophen-2-yl)-propene-1-one] | – | – | 3.5 | 0.004
17 | CN(C)Cc1ccc(/C=C/C(=O)N2CCc3c([nH]c4ccccc34)[C@H]2c2ccc3c(c2)CCO3)o1 [Example 17, (E)-1R-1-[1-(2,3-Dihydrobenzofuran-5-yl)-2,3,4,9-tetrahydro-β-carboline-2-yl]-3-(5-dimethylaminomethyl-furan-2-yl)-propene-1-one] | 40 | – | < 1 | 0.02
18 | CN(C)Cc1occc1/C=C/C(=O)N1CCc2c([nH]c3ccccc23)[C@H]1c1ccc2c(c1)CCO2 [Example 19, (E)-1R-1-[1-(2,3-Dihydrobenzofuran-5-yl)-2,3,4,9-tetrahydro-β-carboline-2-yl]-3-(2-dimethylaminomethyl-furan-3-yl)-propene-1-one] | – | – | 4 | 0.04
19 | O=C(/C=C/c1cncnc1)N1CCc2c([nH]c3ccccc23)[C@H]1c1ccc2c(c1)CCO2 [Example 20, (E)-1R-1-[1-(2,3-Dihydrobenzofuran-5-yl)-2,3,4,9-tetrahydro-β-carboline-2-yl]-3-(pyrimidin-5-yl)-propene-1-one] | 48 | – | < 1 | 0.04
20 | Nc1ncc(/C=C/C(=O)N2CCc3c([nH]c4ccccc34)[C@H]2c2ccc3c(c2)CCO3)cn1 [Example 21, (E)-1R-1-[1-(2,3-Dihydrobenzofuran-5-yl)-2,3,4,9-tetrahydro-β-carboline-2-yl]-3-(2-amino-5-pyrimidin-5-yl)-propene-1-one] | 124 | – | < 1 | 0.007
21 | O=C(/C=C/c1cnc(N2CCCC2)nc1)N1CCc2c([nH]c3ccccc23)[C@H]1c1ccc2c(c1)CCO2 [Example 22] | 9 | – | < 1 | 0.006
22 | CN1CCN(c2ncc(/C=C/C(=O)N3CCc4c([nH]c5ccccc45)[C@H]3c3ccc4c(c3)CCO4)cn2)CC1 [Example 23] | 108 | – | < 1 | 0.008
23 | O=C(/C=C/c1ccc([N+](=O)[O-])s1)N1CCc2c([nH]c3ccccc23)[C@H]1c1ccc2c(c1)CCO2 [Example 26, (E)-1R-1-[1-(2,3-Dihydrobenzofuran-5-yl)-2,3,4,9-tetrahydro-β-carboline-2-yl]-3-(5-nitro-thiophen-2-yl)-propene-1-one] | – | – | < 1 | 0.04
